The record followed here is patent US20210087206A1, “MACROCYCLIC KINASE INHIBITORS AND THEIR USE” (TURNING POINT THERAPEUTICS, INC., priority 2017, published 2021).

What is called IC50 is the concentration that inhibits the measured activity by half. A low value points to greater potency in that assay.

Holding throughout (assay): Cell proliferation assay (CellTiter-Glo)
Common to all, as to format: cell-based
(In general: Cellular ATP, detected with luciferase, serves as a proxy for viable cell number.)

One assay has as its target T1, BaF3 EML4-ALK (Homo sapiens, UniProt Q9UM73).
T1 construct: The EML4-ALK gene (variant 1) was synthesized at GenScript and cloned into pCDH-CMV-MCS-EF1-Puro plasmid (System Biosciences, Inc); fused on or other part: EML4 N-terminal part (variant 1: exons 1-13, with the coiled-coil that oligomerises the fusion) fused to the intracellular part of ALK, which contains the kinase domain; Q9HC35 (Echinoderm microtubule-associated protein-like 4)
As to conditions: anti-cell proliferation, 72 hours. The gist of the method: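 Ba/F3 cells were lentivirally transduced with EML4-ALK variant 1 and selected for puromycin resistance and IL-3-independent growth. Proliferation was measured by CellTiter-Glo ATP luminescence to give IC50.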

For the next assay, the system named is KG-1 cell (OP2-FGFR1). As to conditions: Homo sapiens, anti-cell proliferation, 72 hours. The gist of the method: (§1)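 Cells seeded 24 h, then exposed to compounds for 72 h at 37° C., 5% CO2. Proliferation read by CellTiter-Glo luminescent ATP detection; IC50 from dose-response fits.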
The test system of the next assay is KM12 (TPM3-TRKA). As to conditions: Homo sapiens, anti-cell proliferation, 72 hours. The gist of the method:
as §1

T1 sequence (Q9UM73 whole entry, stated change not applied, the tested form may be a part): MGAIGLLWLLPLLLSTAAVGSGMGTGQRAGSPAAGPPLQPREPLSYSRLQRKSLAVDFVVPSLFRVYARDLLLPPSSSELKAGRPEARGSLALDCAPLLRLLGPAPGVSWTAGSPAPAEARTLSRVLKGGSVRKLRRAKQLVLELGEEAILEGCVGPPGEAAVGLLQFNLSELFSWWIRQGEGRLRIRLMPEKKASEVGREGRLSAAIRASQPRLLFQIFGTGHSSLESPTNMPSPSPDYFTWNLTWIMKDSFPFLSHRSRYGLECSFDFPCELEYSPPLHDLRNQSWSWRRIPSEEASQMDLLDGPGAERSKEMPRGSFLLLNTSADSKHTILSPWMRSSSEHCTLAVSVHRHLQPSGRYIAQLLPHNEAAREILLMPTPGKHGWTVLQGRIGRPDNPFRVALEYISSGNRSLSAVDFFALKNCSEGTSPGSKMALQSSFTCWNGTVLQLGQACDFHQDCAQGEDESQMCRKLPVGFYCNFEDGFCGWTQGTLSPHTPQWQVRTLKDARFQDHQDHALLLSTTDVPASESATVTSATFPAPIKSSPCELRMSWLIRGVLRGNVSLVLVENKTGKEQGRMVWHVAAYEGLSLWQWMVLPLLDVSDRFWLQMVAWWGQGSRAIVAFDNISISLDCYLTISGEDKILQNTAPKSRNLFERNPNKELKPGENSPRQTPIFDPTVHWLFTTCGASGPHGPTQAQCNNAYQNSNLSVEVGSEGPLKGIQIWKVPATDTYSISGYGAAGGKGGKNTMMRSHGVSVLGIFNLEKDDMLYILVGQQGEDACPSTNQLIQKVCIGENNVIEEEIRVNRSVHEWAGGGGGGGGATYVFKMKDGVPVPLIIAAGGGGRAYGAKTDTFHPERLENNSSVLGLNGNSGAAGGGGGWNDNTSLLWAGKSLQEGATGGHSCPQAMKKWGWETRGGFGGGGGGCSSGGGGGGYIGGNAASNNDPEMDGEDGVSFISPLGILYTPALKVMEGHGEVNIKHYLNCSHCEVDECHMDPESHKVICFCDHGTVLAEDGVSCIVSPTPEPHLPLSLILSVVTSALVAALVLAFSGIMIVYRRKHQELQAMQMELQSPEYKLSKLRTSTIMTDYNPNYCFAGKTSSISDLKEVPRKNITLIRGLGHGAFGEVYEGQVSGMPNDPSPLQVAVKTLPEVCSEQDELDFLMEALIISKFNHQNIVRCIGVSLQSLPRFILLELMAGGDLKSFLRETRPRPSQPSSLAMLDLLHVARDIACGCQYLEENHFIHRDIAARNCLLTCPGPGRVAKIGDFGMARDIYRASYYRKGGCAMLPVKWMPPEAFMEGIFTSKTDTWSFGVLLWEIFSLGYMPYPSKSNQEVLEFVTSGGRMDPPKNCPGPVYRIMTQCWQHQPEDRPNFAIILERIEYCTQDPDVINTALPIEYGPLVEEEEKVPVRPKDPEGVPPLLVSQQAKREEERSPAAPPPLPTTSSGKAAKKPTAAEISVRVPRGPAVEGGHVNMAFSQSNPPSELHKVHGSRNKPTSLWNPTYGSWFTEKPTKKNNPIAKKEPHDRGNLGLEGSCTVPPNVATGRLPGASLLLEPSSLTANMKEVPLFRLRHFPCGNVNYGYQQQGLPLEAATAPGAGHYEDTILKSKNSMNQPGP

Turning to `C[C@@H]1COc2cn3ncc4c3nc2N1Cc1cc(F)cnc1OCC(C)(C)NC4=O` [Compound 40, (4R)-8-fluoro-4,13,13-trimethyl-3,4,13,14-tetrahydro-6H-18,1-(metheno)[1,4]oxazino[3,4-i]-pyrazolo[4,3-f]pyrido[3,2-l] [1,4,8,10]oxatriazacyclotridecin-15(12H)-one], the half-maximal inhibitory concentration (IC50) on BaF3 EML4-ALK is less than 0.2 nM; in the assay on KG-1 cell (OP2-FGFR1), 0.2 nM; in the assay on KM12 (TPM3-TRKA) it was less than 0.2 nM.
For `C[C@@H]1COc2ncc(F)cc2CN2c3nc4c(cnn4cc3OC[C@H]2CC#N)C(=O)N1` [Compound 41, [(4R,13R)-8-fluoro-13-methyl-15-oxo-3,4,12,13,14,15-hexahydro-6H-18,1-(metheno)[1,4]oxazino[3,4-i]pyrazolo[4,3-f]pyrido[3,2-][1,4,8,10]oxatriazacyclotridecin-4-yl]acetonitrile], the IC50 was 1170 nM against BaF3 EML4-ALK, 611 nM in the assay with KG-1 cell (OP2-FGFR1) and 0.5 nM in the assay on KM12 (TPM3-TRKA).
In the case of `C=C1COc2cn3ncc4c3nc2N1Cc1cc(F)cnc1OC[C@@H](C)NC4=O` [Compound 42, (13R)-8-fluoro-13-methyl-4-methylidene-3,4,13,14-tetrahydro-6H-18,1-(metheno)[1,4]oxazino[3,4-i]pyrazolo[4,3-f]pyrido[3,2-1][1,4,8,10]oxatriazacyclotridecin-15(12H)-one], the IC50 against BaF3 EML4-ALK was 1200 nM; with KG-1 cell (OP2-FGFR1), 1230 nM; with KM12 (TPM3-TRKA) it was less than 0.2 nM.
Regarding `C[C@@H]1COc2ncc(F)cc2CN2c3nc4c(cnn4cc3OC[C@H]2CN=[N+]=[N-])C(=O)N1` [Compound 43, (4R,13R)-4-(azidomethyl)-8-fluoro-13-methyl-3,4,13,14-tetrahydro-6H-18,1-(metheno)-[1,4]oxazino[3,4-i]pyrazolo[4,3-f]pyrido[3,2-l][1,4,8,10]oxatriaza-cyclotridecin-15(12H)-one], the IC50 against BaF3 EML4-ALK came to 85 nM; in the assay on KG-1 cell (OP2-FGFR1), 30.6 nM; in the assay with KM12 (TPM3-TRKA) it was 0.2 nM.
Regarding `COC[C@@H]1COc2cn3ncc4c3nc2N1Cc1cc(F)cnc1OC[C@@H](C)NC4=O` [Compound 44, (4R,13R)-8-fluoro-4-(methoxymethyl)-13-methyl-3,4,13,14-tetrahydro-6H-18,1-(metheno)[1,4]oxazino[3,4-i]pyrazolo[4,3-f]pyrido[3,2-1][1,4,8,10]oxatriazacyclotridecin-15(12H)-one], the IC50 against BaF3 EML4-ALK is 549 nM; with KG-1 cell (OP2-FGFR1) it was 168 nM; with KM12 (TPM3-TRKA), less than 0.2 nM.
As for `C[C@@H]1COc2cn3ncc4c3nc2N1Cc1cc(F)cnc1OCC1(CCC1)NC4=O` [Compound 45, (4′R)-8′-fluoro-4′-methyl-3′H,4′H,6′H,12′H,14′H,15′H-spiro[cyclobutane-1,13′-[2,11]-dioxa[5,10,14,17,18,19]hexaaza-[18,1](metheno)[1,4]oxazino[3,4-i]pyrazolo[4,3-f]pyrido[3,2-l] [1,4,8,10]oxatriazacyclotridecin]-15′-one], the values for the concentration for half-maximal inhibition (IC50) against BaF3 EML4-ALK, with KG-1 cell (OP2-FGFR1) and with KM12 (TPM3-TRKA) were 2.7 nM, 5 nM and less than 0.2 nM, respectively.
`C[C@@H]1COc2ncc(F)cc2CN2c3nc4c(cnn4cc3OC[C@H]2c2ccccc2)C(=O)N1` [Compound 46, (4R,13R)-8-fluoro-13-methyl-4-phenyl-3,4,13,14-tetrahydro-6H-18,1-(metheno)[1,4]oxazino[3,4-i]pyrazolo[4,3-f]pyrido[3,2-1][1,4,8,10]oxatriazacyclotridecin-15(12H)-one]: the IC50 on BaF3 EML4-ALK was 1060 nM; in the assay with KG-1 cell (OP2-FGFR1), 0.2 nM; in the assay with KM12 (TPM3-TRKA) it was less than 0.2 nM.
Consider `C[C@@H]1COc2cn3ncc4c3nc2N1Cc1cc(F)cnc1OCC1(CCC1)CNC4=O` [Compound 47, (16′R)-12′-fluoro-16′-methyl-4′H,5′H,6′H,8′H,14′H,16′H,17′H-spiro[cyclobutane-1,7′-[9,18]-dioxa[1,2,5,10,15,20]hexaaza-[1,19](metheno)[1,4]oxazino-[4,3-e]pyrazolo[3,4-h]pyrido-[2,3-b][1,5,7,11]oxatriazacyclo-tetradecin]-4′-one], for which the IC50 is 68 nM on BaF3 EML4-ALK, 24.2 nM in the assay on KG-1 cell (OP2-FGFR1) and less than 0.2 nM with KM12 (TPM3-TRKA).
The corresponding values for `C[C@@H]1COc2cn3ncc4c3nc2N1Cc1cc(F)cnc1OCC[C@H](C)NC4=O` [Compound 48, (6S,16R)-12-fluoro-6,16-dimethyl-5,6,7,8,16,17-hexahydro-4H,14H-1,19-(metheno)[1,4]oxazino[4,3-e]pyrazolo[3,4-h]pyrido[2,3-b] [1,5,7,11]oxatriazacyclotetra-decin-4-one] are 22.1 nM, 12.9 nM and less than 0.2 nM.
As to `C[C@@H]1COc2cn3ncc4c3nc2N1Cc1cc(F)cnc1O[C@H]1CCC[C@H]1NC4=O` [Compound 49, (8R,15aS,18aR)-12-fluoro-8-methyl-7,8,15a,16,17,18,18a, 19-octahydro-10H,20H-3,5-(metheno)cyclopenta[b][1,4]-oxazino[3,4-i]pyrazolo[4,3-f]-pyrido[3,2-l][1,4,8,10]-oxatriazacyclotridecin-20-one], the IC50 is 55.1 nM against BaF3 EML4-ALK, 9.5 nM in the assay on KG-1 cell (OP2-FGFR1) and less than 0.2 nM in the assay on KM12 (TPM3-TRKA).
In the case of `C[C@@H]1COc2cn3ncc4c3nc2N1Cc1cc(F)cnc1OCC1(CC(F)(F)C1)NC4=O` [Compound 50, (4′R)-3,3,8′-trifIuoro-4′-methyl-3′H,4′H,6′H,12′H,14′H,15′H-spiro[cyclobutane-1,13′-[2,11]-dioxa[5,10,14,17,18,19]hexaaza-[18,1](metheno)[1,4]oxazino[3,4-i][4,3-f]pyrido[3,2-l][1,4,8,10]-oxatriazacyclotridecin]-15′-one], the IC50 against BaF3 EML4-ALK was 583 nM; in the assay on KG-1 cell (OP2-FGFR1), 412 nM; with KM12 (TPM3-TRKA), less than 0.2 nM.
For the molecule `C[C@@H]1COc2cn3ncc4c3nc2N1Cc1cc(F)cnc1OC[C@H](C)NC4=O` [Compound 51, (4R,13S)-8-fluoro-4,13-dimethyl-3,4,13,14-tetrahydro-6H-18,1-(metheno)[1,4]oxazino[3,4-i]-pyrazolo[4,3-f]pyrido[3,2-l] [1,4,8,10]oxatriazacyclotridecin-15(12H)-one], the IC50 was 233 nM at BaF3 EML4-ALK, 101 nM with KG-1 cell (OP2-FGFR1) and less than 0.2 nM with KM12 (TPM3-TRKA).
Take `C[C@@H]1COc2cn3ncc4c3nc2N1Cc1cc(F)cnc1OCC1(CCCC1)NC4=O` [Compound 52, (4'R)-8'-fluoro-4'-methyl-3'H,4'H,6'H,12'H,14'H,15'H-spiro[cyclopentane-1,13'-[2,11]-dioxa[5,10,14,17,18,19]hexaaza-[18,1](metheno)[1,4]oxazino[3,4-i]pyrazolo[4,3-f]pyrido[3,2-l] [1,4,8,10]oxatriazacyclotridecin]-15’-one]: the IC50 against BaF3 EML4-ALK was 276 nM; with KG-1 cell (OP2-FGFR1), 359 nM; in the assay with KM12 (TPM3-TRKA) it was less than 0.2 nM.
`C[C@@H]1COc2cn3ncc4c3nc2N1Cc1cc(F)cnc1O[C@H]1CCC[C@@H]1NC4=O` [Compound 53, (8R,15aS,18aS)-12-fluoro-8-methyl-7,8,15a,16,17,18,18a, 19-octahydro-10H,20H-3,5-(metheno)cyclopenta[b][1,4]-oxazino[3,4-i]pyrazolo[4,3-f]-pyrido[3,2-l][1,4,8,10]oxatriaza-cyclotridecin-20-one]: the IC50 is 113 nM against BaF3 EML4-ALK, 183 nM in the assay with KG-1 cell (OP2-FGFR1) and less than 0.2 nM with KM12 (TPM3-TRKA).
The corresponding values for `C[C@@H]1COc2cn3ncc4c3nc2N1Cc1cc(F)cnc1OC[C@@H](O)CNC4=O` [Compound 54, (7S,16R)-12-fluoro-7-hydroxy-16-methyl-5,6,7,8,16,17-hexa-hydro-4H,14H-1,19-(metheno)-[1,4]oxazino[4,3-e]pyrazolo-[3,4-h]pyrido[2,3-b][1,5,7,11]-oxatriazacyclotetradecin-4-one] are 661 nM, 678 nM and less than 0.2 nM.
For the molecule `C[C@@H]1COc2cn3ncc4c3nc2N1Cc1cc(F)cnc1OCC(C)(C)CNC4=O` [Compound 55, (16R)-12-fluoro-7,7,16-trimethyl-5,6.7,8,16,17-hexahydro-4H,14H-1,19-(metheno)[1,4]oxazino[4,3-e]pyrazolo[3,4-h]pyrido[2,3-b] [1,5,7,11]oxatriazacyclotetradecin-4-one], the IC50 is 14.8 nM against BaF3 EML4-ALK, 4.2 nM with KG-1 cell (OP2-FGFR1) and less than 0.2 nM with KM12 (TPM3-TRKA).
The like results for `C[C@H]1CNC(=O)c2cnn3cc4c(nc23)N(Cc2cc(F)cnc2O1)C1(CCC1)CO4` [Compound 56, (12′S)-8′-fluoro-12′-methyl-3′H,6′H,12′H,13′H,14′H,15′H-spiro[cyclobutane-1,4′-[2,11]-dioxa[5,10,14,17,18,19]-hexaaza[18,1](metheno)[1,4]-oxazino[3,4-i]pyrazolo[4,3-f]-pyrido[3,2-l][1,4,8,10]oxatriaza-cyclotridecin]-15′-one] were, in that order, 919 nM, 3000 nM and less than 0.2 nM.
Regarding `C[C@H]1CNC(=O)c2cnn3cc4c(nc23)N(Cc2cc(F)cnc2O1)C1(CCCC1)CO4` [Compound 57, (12′S)-8′-fluoro-12′-methyl-3′H,6′H,12′H,13′H,14′H,15′H-spiro[cyclopentane-1,4′-[2,11]-dioxa[5,10,14,17,18,19]hexaaza-[18,1](metheno)[1,4]oxazino[3,4-i]pyrazolo[4,3-f]pyrido[3,2-l] [1,4,8,10]oxatriazacyclotridecin]-15′-one], the IC50 on BaF3 EML4-ALK was 2210 nM; with KG-1 cell (OP2-FGFR1), 4000 nM; in the assay on KM12 (TPM3-TRKA), less than 0.2 nM.
